DBAASP
≈ marks a conversion by molar mass, not a printed value.

Key:
Test in all cases: ≥ marks a high value that may be exact or a test limit, other limits are often not marked, values filed in µg/mL are converted to µM
[1] = system: Bacillus subtilis ATCC 6633
[2] = system: Candida albicans ATCC 20032
[3] = system: Escherichia coli ATCC 25922
[4] = system: Staphylococcus aureus ATCC 25923
[5] = system: Batrachochytrium dendrobatidis
[6] = system: Staphylococcus aureus
[7] = system: Candida albicans NCYC 1467
[8] = system: Escherichia coli ATCC 25726
[9] = system: Staphylococcus aureus NCTC 10788
[10] = system: Bacillus megaterium Bm11
[11] = system: Escherichia coli D21
[12] = system: Proteus vulgaris OX19 ATCC 6380
[13] = system: Pseudomonas aeruginosa OT97
[14] = system: Shigella flexneri ATCC 203
[15] = system: Staphylococcus aureus Cowan 1
[16] = system: Staphylococcus aureus JC-1
[17] = system: Lacticaseibacillus casei ATCC 4646
[18] = system: Streptococcus gordonii Challis DL1
[19] = system: Streptococcus mitis ATCC 903
[20] = system: Streptococcus mutans
[21] = system: Streptococcus sanguinis NY101
[22] = system: Veillonella atypica PK1910
[23] = system: Legionella pneumophila Lens
[24] = system: Pseudomonas aeruginosa PAK
[25] = system: Streptococcus mutans UA159
[26] = system: Bacillus anthracis Sterne 34F2
[27] = system: Bacillus subtilis ATCC 9372
[28] = system: Burkholderia thailandensis
[29] = system: Candida albicans ATCC 10231
[30] = system: Klebsiella pneumoniae ATCC 13883
[31] = system: Staphylococcus aureus ATCC 29213

CC[C@H](C)[C@H](NC(=O)CN)C(=O)NCC(=O)NCC(=O)N[C@H](C(=O)N[C@@H](CC(C)C)C(=O)N[C@@H](CC(C)C)C(=O)NCC(=O)N[C@@H](C)C(=O)NCC(=O)N[C@@H](CCCCN)C(=O)N[C@@H](C)C(=O)N[C@H](C(=O)N[C@@H](CC(C)C)C(=O)N[C@@H](CCCCN)C(=O)NCC(=O)N[C@@H](CC(C)C)C(=O)N[C@@H](C)C(=O)N[C@@H](CCCCN)C(=O)N[C@H](C(=O)N[C@@H](CC(C)C)C(=O)N[C@@H](C)C(=O)N[C@@H](CCC(=O)O)C(=O)N[C@@H](CCCCN)C(=O)N[C@@H](Cc1ccc(O)cc1)C(=O)N[C@@H](C)C(=O)N[C@@H](CC(N)=O)C(N)=O)C(C)C)[C@@H](C)O)C(C)C [GIGGVLLGAGKATLKGLAKVLAEKYAN]
MIC [1]: ≥ 38.3 µM
MIC [2]: ≥ 38.3 µM
MIC [3]: > 38.3 µM
MIC [4]: 7.19 µM (≈ 18.8 µg/mL)

CC[C@H](C)[C@H](NC(=O)[C@H](C)NC(=O)[C@H](CO)NC(=O)[C@@H](NC(=O)[C@@H](N)Cc1ccccc1)[C@@H](C)CC)C(=O)N[C@@H](C)C(=O)N[C@@H](CO)C(=O)N[C@@H](CCSC)C(=O)N[C@@H](CC(C)C)C(=O)NCC(=O)N[C@@H](CCCCN)C(=O)N[C@@H](Cc1ccccc1)C(=O)N[C@@H](CC(C)C)C(N)=O [FISAIASMLGKFL]
MIC [5]: ≥ 100 µM
MIC [6]: 100 µM (≈ 140 µg/mL)

CC[C@H](C)[C@H](NC(=O)[C@H](C)NC(=O)[C@H](CO)NC(=O)[C@@H](NC(=O)[C@H](C)NC(=O)[C@H](CC(C)C)NC(=O)[C@@H]1CCCN1C(=O)[C@@H](NC(=O)[C@H](CCSC)NC(=O)CNC(=O)[C@H](CC(C)C)NC(=O)[C@@H](N)CC(C)C)[C@@H](C)CC)[C@@H](C)CC)C(=O)N[C@@H](CO)C(=O)N[C@@H](C)C(=O)N[C@@H](CC(C)C)C(=O)N[C@@H](CO)C(=O)N[C@@H](CCCCN)C(=O)N[C@@H](CC(C)C)C(N)=O [LLGMIPLAISAISALSKL]
MIC [5]: ≥ 100 µM
MIC [7]: 17.7 µM (≈ 32 µg/mL)
MIC [8]: ≥ 128 µM
MIC [4]: 8 µM (≈ 14.5 µg/mL)
MIC [9]: 4.42 µM (≈ 8 µg/mL)

CC[C@H](C)[C@H](NC(=O)[C@H](CCCCN)NC(=O)[C@@H](NC(=O)[C@@H](NC(=O)[C@H](CCC(N)=O)NC(=O)CNC(=O)[C@H](Cc1cnc[nH]1)NC(=O)[C@H](CCC(N)=O)NC(=O)[C@H](CC(N)=O)NC(=O)[C@H](CCC(N)=O)NC(=O)[C@@H](NC(=O)[C@@H](N)CCCCN)C(C)C)C(C)C)C(C)C)C(=O)N[C@@H](Cc1ccccc1)C(=O)N[C@@H](Cc1cnc[nH]1)C(=O)N[C@@H](Cc1cnc[nH]1)C(=O)O [KVQNQHGQVVKIFHH]
MIC [10]: ≥ 1600 µM
MIC [1]: ≥ 800 µM
MIC [11]: ≥ 3200 µM
MIC [12]: ≥ 6000 µM
MIC [13]: ≥ 6000 µM
MIC [14]: ≥ 800 µM
MIC [15]: ≥ 6000 µM
MIC [16]: ≥ 800 µM

CC(C)C[C@H](NC(=O)[C@H](Cc1ccccc1)NC(=O)[C@H](CCCN=C(N)N)NC(=O)[C@H](CCCCN)NC(=O)[C@@H](N)CC(C)C)C(=O)N[C@@H](CCCCN)C(=O)N[C@@H](Cc1c[nH]c2ccccc12)C(=O)N[C@@H](Cc1ccccc1)C(=O)N[C@@H](CCCCN)C(=O)N[C@@H](CCCN=C(N)N)C(=O)N[C@@H](Cc1ccccc1)C(N)=O [LKRFLKWFKRF]
MIC [17]: 10.2 µM (≈ 16 µg/mL)
MIC [18]: 20.4 µM (≈ 32 µg/mL)
MIC [19]: ≥ 40.8 µM
MIC [20]: 8.83 µM (≈ 13.8 µg/mL)
MIC [21]: 10.2 µM (≈ 16 µg/mL)
MIC [22]: 20.4 µM (≈ 32 µg/mL)

CC[C@H](C)[C@H](NC(=O)[C@H](CC(C)C)NC(=O)[C@H](CC(=O)O)NC(=O)[C@@H](NC(=O)[C@@H](NC(=O)[C@H](Cc1ccccc1)NC(=O)[C@H](CCC(N)=O)NC(=O)[C@@H](N)CCSC)[C@@H](C)CC)[C@@H](C)O)C(=O)NCC(=O)N[C@@H](CCCCN)C(=O)N[C@@H](C)C(=O)N[C@H](C(=O)N[C@@H](CC(=O)O)C(=O)N[C@@H](Cc1ccccc1)C(=O)N[C@@H](Cc1ccccc1)C(=O)N[C@@H](CCCCN)C(=O)NCC(=O)N[C@@H](CC(C)C)C(=O)N[C@@H](Cc1ccccc1)C(=O)N[C@@H](CC(=O)O)C(=O)N[C@@H](CC(N)=O)C(=O)N[C@@H](CCCCN)C(=O)O)C(C)C [MQFITDLIGKAVDFFKGLFDNK]
MIC [23]: 19.6 µM (≈ 49.9 µg/mL)

NC(=O)[C@H](Cc1ccccc1)NC(=O)[C@H](Cc1c[nH]c2ccccc12)NC(=O)[C@H](CCCN=C(N)N)NC(=O)[C@H](Cc1c[nH]c2ccccc12)NC(=O)[C@H](CCCN=C(N)N)NC(=O)[C@H](Cc1c[nH]c2ccccc12)NC(=O)[C@@H](N)CCCN=C(N)N [RWRWRWF]
MIC [17]: 26.8 µM (≈ 32 µg/mL)
MIC [24]: 26.8 µM (≈ 32 µg/mL)
MIC [6]: 26.8 µM (≈ 32 µg/mL)
MIC [18]: 26.8 µM (≈ 32 µg/mL)
MIC [19]: 26.8 µM (≈ 32 µg/mL)
MIC [25]: 4.74 µM (≈ 5.65 µg/mL)
MIC [21]: 26.8 µM (≈ 32 µg/mL)
MIC [22]: ≥ 53.7 µM

CC[C@H](C)[C@H](NC(=O)[C@H](C)NC(=O)[C@@H](N)C(C)C)C(=O)N[C@@H](C)C(=O)N[C@@H](CC(C)C)C(=O)N[C@@H](CCCCN)C(=O)N[C@@H](C)C(=O)N[C@@H](C)C(=O)N[C@@H](Cc1cnc[nH]1)C(=O)N[C@@H](Cc1ccc(O)cc1)C(=O)N[C@@H](Cc1cnc[nH]1)C(=O)N[C@H](C(=O)N[C@@H](Cc1cnc[nH]1)C(=O)N[C@@H](CCCCN)C(=O)N[C@@H](CCC(=O)O)C(=O)O)[C@@H](C)O [VAIALKAAHYHTHKE]
MIC [26]: ≥ 100 µM
MIC [27]: ≥ 100 µM
MIC [28]: ≥ 50 µM
MIC [29]: 0.592 µM (≈ 1 µg/mL)
MIC [30]: ≥ 75.8 µM
MIC [31]: 75.8 µM (≈ 128 µg/mL)

CC[C@H](C)[C@H](N)C(=O)N[C@@H](CC(C)C)C(=O)NCC(=O)N1CCC[C@H]1C(=O)N[C@H](C(=O)N[C@@H](CC(C)C)C(=O)NCC(=O)N[C@@H](CC(C)C)C(=O)N[C@@H](CC(=O)O)C(=O)NCC(=O)N[C@@H](CC(N)=O)C(=O)N[C@@H](C)C(=O)N[C@@H](CC(C)C)C(=O)NCC(=O)NCC(=O)N[C@@H](CC(C)C)C(=O)N[C@H](C(=O)N[C@@H](CCCCN)C(=O)N[C@@H](CCCCN)C(=O)N[C@H](C(N)=O)[C@@H](C)CC)[C@@H](C)CC)C(C)C [ILGPVLGLDGNALGGLIKKI]
MIC [1]: ≥ 51 µM
MIC [2]: ≥ 51 µM
MIC [3]: > 51 µM
MIC [4]: > 51 µM
